Measurements reported in patent US5556849A, “Ruthenium containing phthalocyanin photosensitizers” (priority 1991, dated 1996).

Assays:
[1] = Light absorption maxima and molar extinction coefficients; type: physicochemical; settings: for λmax Q: in water (W)
Description: (§1) Compounds according to the invention were assessed and characterised by their light absorption maxima, and their molar extinction coefficients according to conventional test procedures. Most of the compound were tested for their biological activity according to conventional test procedures in the art. The PC50 represents phototoxic concentration 50%. which is the concentration of compound when exposed to a light dose as described herein, causes a 50% reduction in cancer cell growth vs an untreated control population. The phototoxicity index. PI, is the ratio of the PC50 to the cytotoxic concentration 50%. where the growth is reduced by 50% without a light dose being given.

[2] = tested on: Adherent cells (HeLa RCA. SKOV OVCAR); assay: Phototoxicity (Light): 3H-thymidine incorporation in adherent cells after irradiation, with dark cytotoxicity for PI; type: cell-based; settings: for PI (phototoxicity index): ratio of PC50 to cytotoxic concentration 50% (no light); for IC50: read-out: PC50 (phototoxic concentration 50%)
Description: The media is removed and the cells washed three times with D-PBS. and then covered with D-PBS (200 μl ) and exposed to light from the same source used in the singlet oxygen assay.
This follows the procedure for phototoxicity except that the cells are never exposed to light. The assay is relative to a non-treated control.
as §1
PC50 is determined by a relatively simple in vitro assay on a cellular level, which is generally indicative of photosensitizing activity.

[3] = with light dose, 50% reduction in cancer cell growth vs untreated control, 24 h incubation with sensitizer

| SMILES | ε (molar extinction coefficient) [1] [M⁻¹ cm⁻¹] | λmax Q [1] | PI (phototoxicity index) [2] | IC50 [2, 3] [nM] | PC50 (phototoxic concentration 50%) [2, 3] |
| --- | --- | --- | --- | --- | --- |
| N#Cc1cccc(C(=O)O)c1.N#Cc1cccc(C(=O)O)c1.c1ccc2c(c1)C1=NC3=NC(=Nc4c5ccccc5c5[n]4[Ru][n]4c(c6ccccc6c4=N5)=NC2=N1)c1ccccc13 [RuPc(CBA)2] | 97600 | 650 | 10.2 | 420 | – |
| NCCC(=O)[O-].NCCC(=O)[O-].[K+].[K+].c1ccc2cc3c(cc2c1)C1=NC2=NC(=Nc4c5cc6ccccc6cc5c5[n]4[Ru][n]4c(c6cc7ccccc7cc6c4=N5)=NC3=N1)c1cc3ccccc3cc12 [RuNc(β-ALA)2] | 36500 | 730 | 1.51 | 960 | – |
| O=C(O)c1cccnc1.O=C(O)c1cccnc1.c1ccc2c(c1)C1=NC2=Nc2c3ccccc3c3[n]2[Ru][n]2c(c4ccccc4c2=NC2=NC(=N3)c3ccccc32)=N1 [RuPc(Nic)2] | 648000 | 630 | > 79 | 1260 | – |
| Fc1c(F)c(F)c2c(c1F)C1=NC2=Nc2c3c(F)c(F)c(F)c(F)c3c3[n]2[Ru][n]2c(c4c(F)c(F)c(F)c(F)c4c2=NC2=NC(=N3)c3c(F)c(F)c(F)c(F)c32)=N1.O=C(O)c1cccnc1.O=C(O)c1cccnc1 [RuF16 Pc(Nic)2] | 55700 | – | – | – | Inactive |
| Nc1cccc(C(=O)O)c1.Nc1cccc(C(=O)O)c1.c1ccc2c(c1)C1=NC3=NC(=Nc4c5ccccc5c5[n]4[Ru][n]4c(c6ccccc6c4=N5)=NC2=N1)c1ccccc13 [RuPc(ABA)2] | 72500 | 638 | 8.8 | 3500 | – |
| O=S(=O)([O-])c1cccnc1.O=S(=O)([O-])c1cccnc1.[Na+].[Na+].c1ccc2c(c1)C1=NC2=Nc2c3ccccc3c3[n]2[Ru][n]2c(c4ccccc4c2=NC2=NC(=N3)c3ccccc32)=N1 [RuPc(3PS)2] | 736000 | 630 | > 109 | 929 | – |
| O=C([O-])c1cccc(P(c2ccccc2)c2ccccc2)c1.[Na+].c1ccc2c(c1)C1=NC2=Nc2c3ccccc3c3[n]2[Ru][n]2c(c4ccccc4c2=NC2=NC(=N3)c3ccccc32)=N1.c1ccncc1 [RuPc(py)(TPPMC)] | 54600 | 644 | – | – | – |
| O=S(=O)([O-])c1ccc[n+]([Ru-2]2([n+]3cccc(S(=O)(=O)[O-])c3)[n]3c4c5cc6ccccc6cc5c3N=C3N=C(N=c5c6cc7ccccc7cc6c([n]52)=NC2=NC(=N4)c4cc5ccccc5cc42)c2cc4ccccc4cc23)c1.[Na+].[Na+] [RuNc(3PS)2] | 83000 | 730 | 32.6 | – | – |
| O=S(=O)(O)c1ccc[n+]([Ru-2]2([n+]3cccc(S(=O)(=O)O)c3)[n]3c4c5cc6ccccc6cc5c3N=C3N=C(N=c5c6cc7ccccc7cc6c([n]52)=NC2=NC(=N4)c4cc5ccccc5cc42)c2cc4ccccc4cc23)c1.[Na+].[Na+] [RuNc(3PS)2] | – | – | – | 460 | – |
| O=S(=O)([O-])c1cccc(P(c2ccccc2)c2ccccc2)c1.O=S(=O)([O-])c1cccc(P(c2ccccc2)c2ccccc2)c1.[K+].[K+].c1ccc2c(c1)C1=NC3=NC(=Nc4c5ccccc5c5[n]4[Ru][n]4c(c6ccccc6c4=N5)=NC2=N1)c1ccccc13 [RuPc(TPPMS)2] | 90300 | 652 | – | – | – |
